In brackets after ≈: the same amount, converted by molar mass. Where two headings read alike, the source gives them in different places.

One data set relates to HeLa cells. As to the kind of experiment: in vitro test against HeLa cells. The format is cell-based. Conditions: Homo sapiens, read-out: ID50 on HeLa Cells. The protocol:
The biological activity of the compounds according to the invention was tested in vitro against HeLa cells in comparison with daunorubicin and doxorubicin.
Compound ID50 on HeLa Cells (ng/ml)

Another data set concerns P 388 leukemia. As to the kind of experiment: in vivo activity against P 388 leukemia (treatment i.p. on day 1 after tumor implantation).

As for `COc1cccc2c1C(=O)c1c(O)c3c(c(O)c1C2=O)C[C@@](O)(C(C)=O)C[C@@H]3O[C@H]1C[C@@H](N)[C@@H](OC)[C@H](C)O1` [3',4'-diepi-4'-O-methyl daunorubicin, 3',4'-diepi-4'-O-methyl-daunorubicin], the IC50 in the data set on HeLa cells (in vitro, HeLa cells) is 0.036 µg/mL (≈ 0.0665 µM). In addition, the “LTS (long term survivors)” value is on record as 0/8 with P 388 leukemia (6.6 mg/kg); 0/8 in the data set with P 388 leukemia (10 mg/kg); 0/18 with P 388 leukemia (15 mg/kg); 0/10 in the data set on P 388 leukemia (22 mg/kg); 1/10 in the data set on P 388 leukemia (33 mg/kg). The T/C % with P 388 leukemia (6.6 mg/kg) is 145%; in the data set with P 388 leukemia (10 mg/kg) it was 154%; with P 388 leukemia (22 mg/kg) it was 222%; in the data set on P 388 leukemia (33 mg/kg) it was 231%. The Toxicity in the data set with P 388 leukemia (6.6 mg/kg) is 0/8; in the data set with P 388 leukemia (10 mg/kg), 0/8; with P 388 leukemia (15 mg/kg), 0/18; with P 388 leukemia (22 mg/kg), 0/10; with P 388 leukemia (33 mg/kg) it was 2/10.
As to `COc1cccc2c1C(=O)c1c(O)c3c(c(O)c1C2=O)C[C@@](O)(C(=O)CO)C[C@@H]3O[C@H]1C[C@@H](N)[C@@H](OC)[C@H](C)O1` [3',4'-diepi-4'-O-methyl doxorubicin, 3',4'-diepi-4'-O-methyl-doxorubicin], in the data set on HeLa cells (in vitro, HeLa cells), the IC50 turned out to be 0.0059 µg/mL (≈ 0.0106 µM). Moreover, the “LTS (long term survivors)” value with P 388 leukemia (1.9 mg/kg), in the data set with P 388 leukemia (2.9 mg/kg), in the data set on P 388 leukemia (4.4 mg/kg) and in the data set with P 388 leukemia (6.6 mg/kg) was 0/10 in each case. The T/C % with P 388 leukemia (1.9 mg/kg) is listed as 180%; with P 388 leukemia (2.9 mg/kg), 200%; in the data set with P 388 leukemia (4.4 mg/kg) it was 109%; in the data set with P 388 leukemia (6.6 mg/kg), 76%. For the same compound, the Toxicity in the data set with P 388 leukemia (1.9 mg/kg) is 0/10; in the data set on P 388 leukemia (2.9 mg/kg) it was 2/10; in the data set on P 388 leukemia (4.4 mg/kg), 10/10; with P 388 leukemia (6.6 mg/kg) it was 10/10.
Regarding `COc1cccc2c1C(=O)c1c(O)c3c(c(O)c1C2=O)C[C@@](O)(C(C)=O)C[C@@H]3O[C@H]1C[C@H](N)[C@H](O)[C@H](C)O1` [Daunorubicin, reference compound], the IC50 with HeLa cells (HeLa) turned out to be 0.014 µg/mL (≈ 0.0265 µM). Further, the “LTS (long term survivors)” value in the data set on P 388 leukemia (2.9 mg/kg) is recorded as 0/18; in the data set on P 388 leukemia (4.4 mg/kg), 0/18; in the data set with P 388 leukemia (6.6 mg/kg), 0/8. In addition, the Toxicity with P 388 leukemia (2.9 mg/kg) is given as 0/18; with P 388 leukemia (4.4 mg/kg) it was 0/18; in the data set with P 388 leukemia (6.6 mg/kg), 3/8. In the data set on P 388 leukemia (6.6 mg/kg), the T/C % worked out at 163%.
For the compound `COc1cccc2c1C(=O)c1c(O)c3c(c(O)c1C2=O)C[C@@](O)(C(=O)CO)C[C@@H]3O[C@H]1C[C@H](N)[C@H](O)[C@H](C)O1` [Doxorubicin, reference compound], the IC50 with HeLa cells (HeLa) was determined as 0.0095 µg/mL (≈ 0.0175 µM). In the data set with P 388 leukemia (4.4 mg/kg), the “LTS (long term survivors)” value was 2/10, the T/C % was found to be 209% and the Toxicity is given as 0/8. In the data set with P 388 leukemia (6.6 mg/kg), the “LTS (long term survivors)” value is given as 0/10, the T/C % amounted to 233% and the Toxicity is recorded as 0/8.
